What was measured:
IL-17A : IL-17RA binding = target: T1, IL-17A : IL-17RA binding (Homo sapiens, UniProt Q16552, K93Q); experiment: IL-17A(FLAG-tagged):IL-17RA(His-tagged) binding disruption Eu-HTRF assay, Protocol 1; details: FLAG-IL-17A 2.5 nM at 2x final concentration; average if tested more than once
T1 construct: Name: IL-17A-Flag
Source text: An antibody directed against the FLAG tag of IL-17A (SEQ ID NO: 1) is labeled with the HTRF donor chromophore (Europium-cryptate). IL-17A is present as a dimer that is “locked into” this quaternary structure due to the formation of loop-spanning […] disulfide bridges. The construct of IL-17RA used in the assay excludes the […] portion of the receptor and is fused to a C-terminal 10×His tag (SEQ ID NO:2). An antibody directed against the His tag of the IL-17RA chimera is labeled with the HTRF acceptor chromophore (“D2”). The fluorescence-resonance energy transfer (FRET) depends on the vicinity of the donor chromophore to the acceptor, and interruption of the binding between the IL-17A and IL-17RA causes the reduction/loss of FRET. Therefore, this assay allows to evaluate the compound effect on the binding IL-17A and IL-17RA by monitoring the fluorescence intensity of donor vs acceptor. The assay was run using either Protocol 1 or Protocol 2 as described below.
Protocol 1. 40 nl of 2-fold serial diluted compound solution for total 22 dilution points is added into each well of a 1536-well, white, low-volume, non-binding plate (Greiner #782904), then 2 μl of FLAG tagged IL-17A at 2× final concentration (2.5 nM) in solution of PBS+0.01% Triton-X100 is added to each well. The assay plate is briefly centrifuged then incubated for 1 h at rt. A mixed solution is prepared containing 2×5 nM 10HIS×IL-17RA, 2×2.5 nM Eu-anti-FLAG (CISBIO), 2×5 nM D2-anti-HIS (CISBIO) in PBS+0.01% Triton-X100+200 mM Potassium Fluoride (Sigma 60238) and 2 μl of mix is added to each well of the assay plate. The plate is briefly centrifuged then incubated for 2 h at rt. The HTRF intensities at the wavelength of donor (620 nm) and acceptor (665 nm) are measured using BMG Pherastar. The ratio between intensities at two wavelengths is calculated and plotted against the compound concentration and the data is fitted to a one-site competition model to yield IC50 of the compound.

[1] = system: IL-17A-induced G-CSF production in human normal keratinocyte (NHK); experiment: NHK assay: IL-17A-induced G-CSF production in normal human keratinocytes; format: cell-based; details: 24 h, IL-17A 5 ng/mL, average if tested more than once
Description: IL-17A acts directly on keratinocytes through binding to dimeric receptor IL-17RA/RC and drives the production of a number of inflammatory mediators known to be elevated in psoriasis lesional tissue. IL-17A small molecule inhibitors that block the IL-17A to interact with IL-17R would inhibit the IL-17A signaling in its targeted cells such as keratinocytes. The compound functional activity is evaluated for its impact on IL-17A-induced G-CSF production in human normal keratinocyte (NHK).
Adult normal human keratinocytes are cultured in keratinocyte growth medium (Lonza) in a flask till reaching ˜90% confluence, then cells are transferred to a 384-well plate at density of 3000-4000 cell/well. Recombinant human IL-17A (Gibco PHC9174) is pre-incubated with titrated compound or DMSO for 1 h at rt then added to the cell culture plate. The final concentration of IL-17A is 5 ng/mL and DMSO is 0.2%, in the culture containing 5% FBS. Cells are cultured/treated for 24 h at 37° C. Supernatants are collected and G-CSF production is measured through HTRF technology using Human G-CSF Kit (CisBio). G-CSF concentration was extrapolated from the standard curve and IC50 is determined using GraphPad Prism. Cell viability is also evaluated using CellTiter-Glo kit (Promega) and effect of compound on cell viability is compared to DMSO control.

T1 sequence (Q16552 with tags, fused parts or gaps K93Q): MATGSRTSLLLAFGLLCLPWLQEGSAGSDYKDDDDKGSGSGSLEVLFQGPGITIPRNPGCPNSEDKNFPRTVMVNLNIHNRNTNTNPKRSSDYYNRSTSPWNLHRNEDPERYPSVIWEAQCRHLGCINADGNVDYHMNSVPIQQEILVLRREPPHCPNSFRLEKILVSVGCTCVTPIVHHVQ

Row | IC50 (IL-17A : IL-17RA binding) | SMILES | IC50 ([1]; Homo sapiens, Keratinocyte) | IC50 [1]
1 | 50 to 100 nM | C[C@@H](NC(=O)CCC(F)(F)F)c1ccc2nc([C@@H](NC(=O)c3cnnn3CC3CCC3)C3CCC(F)(F)CC3)[nH]c2c1 [Example 63, 1-(Cyclobutylmethyl)-N—((S)-(4,4-difluorocyclohexyl)(6-((R)-1-(4,4,4-trifluorobutanamido)ethyl)-1H-benzo[d]imidazol-2-yl)methyl)-1H-1,2,3-triazole-5-carboxamide] | 50 to 100 nM | 
2 | > 100 nM | CC(C)C(=O)N[C@H](c1nc2cc([C@@H](C)NC(=O)CCC(F)(F)F)ccc2[nH]1)C1CCC(F)(F)CC1 [Example 115, N—((R)-1-(2-((S)-(4,4-Difluorocyclohexyl)(isobutyramido)methyl)-1H-benzo[d]imidazol-5-yl)ethyl)-4,4,4-trifluorobutanamide] | > 100 nM | 
3 | > 100 nM | CC(C)n1nccc1C(=O)N[C@H](c1nc2ccc([C@H](NC(=O)CC3CC(F)(F)C3)C3CC3)cc2[nH]1)C1CC(F)(F)CCO1 (single isomer, unassigned) [Example 172, N—((R)-(6-((R)-Cyclopropyl(2-(3,3-difluorocyclobutyl)acetamido)methyl)-1H-benzo[d]imidazol-2-yl)((S*)-4,4-difluorotetrahydro-2H-pyran-2-yl)methyl)-1-isopropyl-1H-pyrazole-5-carboxamide] | < 50 nM | 
4 | > 100 nM | C[C@@H](NC(=O)CCC(F)(F)F)c1ccc2[nH]c([C@@H](NC(=O)c3cnnn3CC3CC3(F)F)C3CCC(F)(F)CC3)nc2c1 (stereo partly drawn) [Example 80, N—((S)-(4,4-Difluorocyclohexyl)(5-((R)-1-(4,4,4-trifluorobutanamido)ethyl)-1H-benzo[d]imidazol-2-yl)methyl)-1-((2,2-difluorocyclopropyl)methyl)-1H-1,2,3-triazole-5-carboxamide] | 50 to 100 nM | 
5 | > 100 nM | C[C@@H](NC(=O)CCC(F)(F)F)c1ccc2[nH]c([C@@H](NC(=O)c3cn(CC45CC(C#N)(C4)C5)nn3)C3CCC(F)(F)CC3)nc2c1 [Example 79, 1-((3-Cyanobicyclo[1.1.1]pentan-1-yl)methyl)-N—((S)-(4,4-difluorocyclohexyl)(5-((R)-1-(4,4,4-trifluorobutanamido)ethyl)-1H-benzo[d]imidazol-2-yl)methyl)-1H-1,2,3-triazole-4-carboxamide] | > 100 nM | 
6 | > 100 nM | C[C@@H](NC(=O)CCC(F)(F)F)c1ccc2[nH]c([C@@H](NC(=O)c3cn(CC(F)(F)F)nn3)C3CCC(F)(F)CC3)nc2c1 [Example 24, N—[(S)-(4,4-Difluorocyclohexyl)-[6-[(1R)-1-(4,4,4-trifluorobutanoylamino)ethyl]-1H-benzimidazol-2-yl]methyl]-1-(2,2,2-trifluoroethyl)triazole-4-carboxamide] | > 100 nM | 
7 | < 50 nM | Cc1nonc1C(=O)N[C@H](c1nc2cc([C@@H](C)NC(=O)CCC(F)(F)F)ccc2[nH]1)[C@@H]1CCCC(F)(F)C1 [Example 264, N—((S)—((R)-3,3-Difluorocyclohexyl)(5-((R)-1-(4,4,4-trifluorobutanamido)ethyl)-1H-benzo[d]imidazol-2-yl)methyl)-4-methyl-1,2,5-oxadiazole-3-carboxamide] | > 100 nM | 
8 | < 50 nM | O=C(CC1CC(F)(F)C1)N[C@@H](c1ccc2nc([C@@H](NC(=O)c3nonc3C3CC3)[C@H]3CCCC(F)(F)C3)[nH]c2c1)C1CC1 [Example 170, 4-Cyclopropyl-N—((S)-(6-((R)-cyclopropyl(2-(3,3-difluorocyclobutyl)acetamido)methyl)-1H-benzo[d]imidazol-2-yl)((S)-3,3-difluorocyclohexyl)methyl)-1,2,5-oxadiazole-3-carboxamide] | < 50 nM | 
9 | < 50 nM | Cc1nonc1C(=O)N[C@H](c1nc2ccc([C@H](NC(=O)CC3CC(F)(F)C3)C3CC3)cc2[nH]1)[C@H]1CCCC(F)(F)C1 [Example 247, N—((S)-(6-((R)-Cyclopropyl(2-(3,3-difluorocyclobutyl)acetamido)methyl)-1H-benzo[d]imidazol-2-yl)((S)-3,3-difluorocyclohexyl)methyl)-4-methyl-1,2,5-oxadiazole-3-carboxamide] | < 50 nM | 
10 | > 100 nM | CC(C)n1nccc1C(=O)N[C@@H](CC1CC2(C1)CC(F)(F)C2)c1nc2ccc([C@H](NC(=O)CC3CC(F)(F)C3)C3CC3)cc2[nH]1 (stereo partly drawn) [Example 148, N—((S)-1-(6-((R)-Cyclopropyl(2-(3,3-difluorocyclobutyl)acetamido)methyl)-1H-benzo[d]imidazol-2-yl)-2-(6,6-difluorospiro[3.3]heptan-2-yl)ethyl)-1-isopropyl-1H-pyrazole-5-carboxamide] | > 100 nM | 
11 | > 100 nM | C[C@@H](NC(=O)CCC(F)(F)F)c1ccc2[nH]c([C@@H](NC(=O)c3cnn4c3CCC4)C3CCC(F)(F)CC3)nc2c1 [Example 212, N—((S)-(4,4-Difluorocyclohexyl)(5-((R)-1-(4,4,4-trifluorobutanamido)ethyl)-1H-benzo[d]imidazol-2-yl)methyl)-5,6-dihydro-4H-pyrrolo[1,2-b]pyrazole-3-carboxamide] | > 100 nM | 
12 | > 100 nM | CC(C)n1cnc(C(=O)N[C@H](c2nc3cc([C@@H](C)NC(=O)CCC(F)(F)F)ccc3[nH]2)C2CCC(F)(F)CC2)n1 [Example 39, N—[(S)-(4,4-Difluorocyclohexyl)-[6-[(1R)-1-(4,4,4-trifluorobutanoylamino)ethyl]-1H-benzimidazol-2-yl]methyl]-1-isopropyl-1,2,4-triazole-3-carboxamide] | > 100 nM | 
13 | > 100 nM | CC(Cn1nncc1C(=O)N[C@H](c1nc2ccc([C@@H](C)NC(=O)CCC(F)(F)F)cc2[nH]1)C1CCC(F)(F)CC1)C(F)(F)F (single isomer, unassigned) [Example 72, N—((S)-(4,4-Difluorocyclohexyl)(6-((R)-1-(4,4,4-trifluorobutanamido)ethyl)-1H-benzo[d]imidazol-2-yl)methyl)-1-((S*)-3,3,3-trifluoro-2-methylpropyl)-1H-1,2,3-triazole-5-carboxamide] |  | > 100 nM
14 | > 100 nM | C[C@@H](NC(=O)CCC(F)(F)F)c1ccc2[nH]c([C@@H](NC(=O)c3cc(O)n(CCC(F)(F)F)n3)C3CCC(F)(F)CC3)nc2c1 [Example 93, N—((S)-(4,4-Difluorocyclohexyl)(5-((R)-1-(4,4,4-trifluorobutanamido)ethyl)-1H-benzo[d]imidazol-2-yl)methyl)-5-hydroxy-1-(3,3,3-trifluoropropyl)-1H-pyrazole-3-carboxamide] | > 100 nM | 
15 | > 100 nM | Cc1n[nH]cc1C(=O)N[C@H](c1nc2cc([C@@H](C)NC(=O)CCC(F)(F)F)ccc2[nH]1)C1CCC(F)(F)CC1 [Example 25, N—[(S)-(4,4-Difluorocyclohexyl)-[6-[(1R)-1-(4,4,4-trifluorobutanoylamino)ethyl]-1H-benzimidazol-2-yl]methyl]-3-methyl-1H-pyrazole-4-carboxamide] | > 100 nM | 
16 | > 100 nM | C[C@@H](NC(=O)CCC(F)(F)F)c1ccc2[nH]c([C@@H](NC(=O)c3nccn3CCC(F)(F)F)C3CCC(F)(F)CC3)nc2c1 [Example 227, N—((S)-(4,4-Difluorocyclohexyl)(5-((R)-1-(4,4,4-trifluorobutanamido)ethyl)-1H-benzo[d]imidazol-2-yl)methyl)-1-(3,3,3-trifluoropropyl)-1H-imidazole-2-carboxamide] | > 100 nM | 
